What was measured:
[1] = target: EGFR (Homo sapiens (Human), UniProt P00533); assay: ErbB Enzyme Assay (HTRF KinEASE-TK), Assay 3; format: biochemical
[2] = target: ErbB2 with Exon 20 YVMA insertion (HER2-YVMA) (Homo sapiens (Human), UniProt P04626, INS775YVMA); assay: Cellular Phosphorylation Assay, Assay 4 (constitutive ErbB2 phosphorylation, NIH 3T3 cells); format: cell-based
[3] = target: EGFR wild type (EGFR WT) (Homo sapiens (Human), UniProt P00533); assay: Cellular Phosphorylation Assay, Assay 5 (EGF-stimulated EGFR phosphorylation, NIH 3T3 cells); format: cell-based
[4] = target: ErbB2 WT (Homo sapiens (Human), UniProt P04626); assay: ErbB Enzyme Assay (HTRF KinEASE-TK), Assay 2; format: biochemical
[5] = target: BCRP (Homo sapiens (Human), UniProt Q9UNQ0); assay: BCRP MDCKII efflux assay (Assay 7); format: in vitro ADME; conditions: dog; efflux ratio Papp(B-A)/Papp(A-B), BCRP MDCKII cells; read-out: Assay 7 Pe Ratio
Protocol: Assay conditions included with and without the BCRP-specific inhibitor, KO143, at a concentration of 0.3 μM to ascertain the contribution of BCRP to the efflux value of the test compound.
Final organic concentration in the assay was 1%.

[6] = target: MDR1 (P-gp) (Homo sapiens (Human), UniProt P08183); assay: in vitro; conditions: pig, LLC-PK1
[7] = EGF-stimulated EGFR WT phosphorylation
[8] = cellular ErbB2 YVMA phosphorylation
[9] = cellular EGFR WT phosphorylation, EGF-stimulated

Sequence of BCRP (Q9UNQ0 whole entry): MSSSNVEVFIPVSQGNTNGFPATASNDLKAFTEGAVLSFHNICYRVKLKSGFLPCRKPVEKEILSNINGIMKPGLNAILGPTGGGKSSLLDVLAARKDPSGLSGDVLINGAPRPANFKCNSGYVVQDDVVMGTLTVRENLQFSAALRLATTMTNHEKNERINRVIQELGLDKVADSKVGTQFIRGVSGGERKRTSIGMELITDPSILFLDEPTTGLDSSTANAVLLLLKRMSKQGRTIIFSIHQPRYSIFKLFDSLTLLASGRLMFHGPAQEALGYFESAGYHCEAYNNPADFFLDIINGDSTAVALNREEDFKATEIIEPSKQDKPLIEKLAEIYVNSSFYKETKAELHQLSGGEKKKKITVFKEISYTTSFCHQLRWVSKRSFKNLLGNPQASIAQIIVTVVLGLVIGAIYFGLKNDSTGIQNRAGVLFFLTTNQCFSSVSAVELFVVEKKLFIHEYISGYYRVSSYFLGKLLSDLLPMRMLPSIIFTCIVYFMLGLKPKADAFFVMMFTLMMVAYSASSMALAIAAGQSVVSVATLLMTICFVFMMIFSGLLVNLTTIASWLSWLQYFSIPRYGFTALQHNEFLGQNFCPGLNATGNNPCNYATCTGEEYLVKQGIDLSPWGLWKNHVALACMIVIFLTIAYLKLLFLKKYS
Sequence of ErbB2 WT (P04626 23-1255): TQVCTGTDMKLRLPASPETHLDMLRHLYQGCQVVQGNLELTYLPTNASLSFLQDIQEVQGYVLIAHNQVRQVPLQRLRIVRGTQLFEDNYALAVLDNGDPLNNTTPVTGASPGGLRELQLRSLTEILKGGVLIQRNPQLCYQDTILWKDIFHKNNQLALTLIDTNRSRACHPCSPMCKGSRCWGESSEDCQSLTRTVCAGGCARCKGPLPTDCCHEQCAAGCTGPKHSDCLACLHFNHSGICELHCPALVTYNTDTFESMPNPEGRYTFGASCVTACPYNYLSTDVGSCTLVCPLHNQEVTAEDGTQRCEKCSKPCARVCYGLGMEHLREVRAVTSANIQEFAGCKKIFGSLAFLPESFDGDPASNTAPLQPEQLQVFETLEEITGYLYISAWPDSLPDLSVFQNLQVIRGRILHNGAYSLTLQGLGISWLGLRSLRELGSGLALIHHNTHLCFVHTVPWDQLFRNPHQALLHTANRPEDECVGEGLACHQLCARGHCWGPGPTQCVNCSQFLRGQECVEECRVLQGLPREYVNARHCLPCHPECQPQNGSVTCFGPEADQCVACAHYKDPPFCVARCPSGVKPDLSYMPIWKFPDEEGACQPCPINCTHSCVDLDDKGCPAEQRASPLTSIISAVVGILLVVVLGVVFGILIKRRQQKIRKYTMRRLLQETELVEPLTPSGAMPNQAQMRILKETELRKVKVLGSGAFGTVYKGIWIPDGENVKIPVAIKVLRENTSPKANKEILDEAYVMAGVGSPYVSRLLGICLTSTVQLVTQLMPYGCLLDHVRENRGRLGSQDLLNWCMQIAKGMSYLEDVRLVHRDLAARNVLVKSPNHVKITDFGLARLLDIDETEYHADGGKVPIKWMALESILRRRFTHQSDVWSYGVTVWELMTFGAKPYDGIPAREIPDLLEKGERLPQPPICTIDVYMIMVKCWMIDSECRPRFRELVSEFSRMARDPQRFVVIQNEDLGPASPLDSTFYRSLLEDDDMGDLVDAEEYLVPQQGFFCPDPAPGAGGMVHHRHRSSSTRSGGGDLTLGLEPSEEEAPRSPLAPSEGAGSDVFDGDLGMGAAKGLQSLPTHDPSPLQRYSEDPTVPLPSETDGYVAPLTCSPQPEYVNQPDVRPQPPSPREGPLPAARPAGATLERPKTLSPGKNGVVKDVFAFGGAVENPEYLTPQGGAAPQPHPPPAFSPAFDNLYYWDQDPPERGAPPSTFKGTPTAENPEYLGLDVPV
Sequence of EGFR (P00533 25-1210): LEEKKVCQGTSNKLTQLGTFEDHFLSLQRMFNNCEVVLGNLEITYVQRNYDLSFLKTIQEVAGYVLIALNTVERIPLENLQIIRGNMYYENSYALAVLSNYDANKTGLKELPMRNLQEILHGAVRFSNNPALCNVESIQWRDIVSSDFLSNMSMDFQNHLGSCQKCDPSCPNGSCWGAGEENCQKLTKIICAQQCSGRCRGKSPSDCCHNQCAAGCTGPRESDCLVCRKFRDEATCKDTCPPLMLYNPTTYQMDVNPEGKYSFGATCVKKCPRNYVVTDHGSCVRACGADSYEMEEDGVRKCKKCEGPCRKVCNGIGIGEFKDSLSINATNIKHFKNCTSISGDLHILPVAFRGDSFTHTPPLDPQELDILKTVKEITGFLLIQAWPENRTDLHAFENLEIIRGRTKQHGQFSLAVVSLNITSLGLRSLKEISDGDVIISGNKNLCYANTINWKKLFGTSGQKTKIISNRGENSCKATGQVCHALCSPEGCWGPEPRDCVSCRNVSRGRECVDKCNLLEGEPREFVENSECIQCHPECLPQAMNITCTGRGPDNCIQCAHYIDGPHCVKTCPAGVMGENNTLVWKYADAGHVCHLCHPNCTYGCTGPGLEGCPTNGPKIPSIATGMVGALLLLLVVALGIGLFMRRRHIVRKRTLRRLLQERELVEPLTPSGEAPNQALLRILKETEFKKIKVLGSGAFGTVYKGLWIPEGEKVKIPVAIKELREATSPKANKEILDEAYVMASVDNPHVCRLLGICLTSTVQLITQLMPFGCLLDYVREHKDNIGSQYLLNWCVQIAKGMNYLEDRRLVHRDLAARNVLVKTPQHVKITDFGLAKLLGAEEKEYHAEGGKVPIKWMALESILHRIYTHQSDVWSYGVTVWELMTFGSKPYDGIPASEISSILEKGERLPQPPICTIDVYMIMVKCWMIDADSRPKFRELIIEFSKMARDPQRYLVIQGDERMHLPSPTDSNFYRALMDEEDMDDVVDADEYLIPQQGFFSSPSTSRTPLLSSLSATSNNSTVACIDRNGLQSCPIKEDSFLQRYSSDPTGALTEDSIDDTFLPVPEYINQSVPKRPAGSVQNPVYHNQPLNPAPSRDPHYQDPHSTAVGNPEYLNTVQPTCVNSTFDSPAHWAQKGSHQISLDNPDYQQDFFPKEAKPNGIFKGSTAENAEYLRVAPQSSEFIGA
Sequence of EGFR wild type (EGFR WT) (P00533 25-1210): as above

| efflux ratio at 2 h, 1 µM [5] | efflux ratio at 2 h, 1 µM [6] | IC50 ([1]; EGFR enzyme assay) [nM] | IC50 [2, 8] [nM] | IC50 [3, 9] [nM] | IC50 ([4]; ErbB2 WT enzyme assay) [nM] | SMILES | IC50 ([1]; EGFR enzyme) [nM] | IC50 ([2]; ErbB2 YVMA phosphorylation) [nM] | IC50 [3, 7] [nM] | IC50 ([4]; ErbB2 WT enzyme) [nM] |
| --- | --- | --- | --- | --- | --- | --- | --- | --- | --- | --- |
| 4.3 | 1.1 | – | – | – | – | C=CC(=O)N1CCN(c2ccc3ncnc(Nc4cc(C)c(Oc5ccn6ncnc6c5)cc4F)c3n2)CC1(C)C [Example 73, 1-(4-(4-((4-([1,2,4]triazolo[1,5-a]pyridin-7-yloxy)-2-fluoro-5-methylphenyl)amino)pyrido[3,2-d]pyrimidin-6-yl)-2,2-dimethylpiperazin-1-yl)prop-2-en-1-one] | 5080 | 28.9 | 2420 | 36.4 |
| 1.4 | 1.3 | – | – | – | – | C=CC(=O)N1C[C@H]2CC[C@@H](C1)[C@@H]2c1ccc2ncnc(Nc3cc(C)c(Oc4ccn5ncnc5c4)cc3F)c2n1 [Example 222, 1-((1R,5S,8r)-8-(4-((4-([1,2,4]triazolo[1,5-a]pyridin-7-yloxy)-2-fluoro-5-methylphenyl)amino)pyrido[3,2-d]pyrimidin-6-yl)-3-azabicyclo[3.2.1]octan-3-yl)prop-2-en-1-one] | 5830 | 309 | ≥ 5000 | 133 |
| 3.5 | 1.3 | 712 | 17.4 | 1450 | 8.2 | C=CC(=O)N1C[C@H](c2ccc3ncnc(Nc4ccc(Oc5ccn6ncnc6c5)c(C)c4F)c3n2)C[C@@H]1C1CC1 (racemic) [Example 302] | – | – | – | – |
| 5.2 | 2 | – | – | – | – | C=CC(=O)N1CCC(Sc2ccc3ncnc(Nc4ccc(Oc5ccc6c(c5)ncn6C)c(C)c4F)c3n2)CC1 [Example 28, 1-(4-((4-((2-fluoro-3-methyl-4-((1-methyl-1H-benzo[d]imidazol-5-yl)oxy)phenyl)amino)pyrido[3,2-d]pyrimidin-6-yl)thio)piperidin-1-yl)prop-2-en-1-one] | ≥ 10000 | 26.4 | ≥ 5000 | 275 |
| 1.1 | 1.3 | 5070 | 18.3 | 2580 | 20 | C=CC(=O)N1CCN(c2ccc3ncnc(Nc4ccc(Oc5ccn6ncnc6c5)c(C)c4F)c3n2)C[C@H]1C(C)(C)C [Example 303] | – | – | – | – |
| 4.8 | 1.5 | 8710 | 38.5 | ≥ 5000 | 53.6 | C=CC(=O)N1CCN(c2ccc3ncnc(Nc4cc(C)c(Oc5ccn6ncnc6c5)cc4F)c3n2)C[C@@H]1CC [Example 290] | – | – | – | – |
| 2.7 | 0.8 | – | – | – | – | C=CC(=O)N1C[C@H]2C[C@H](c3ccc4ncnc(Nc5ccc(Oc6ccn7ncnc7c6)c(Cl)c5F)c4n3)[C@@H]1C2 [Example 230, 1-((1 S,4S,6S)-6-(4-((4-([1,2,4]triazolo[1,5-a]pyridin-7-yloxy)-3-chloro-2-fluorophenyl)amino)pyrido[3,2-d]pyrimidin-6-yl)-2-azabicyclo[2.2.1]heptan-2-yl)prop-2-en-1-one] | 312 | 21.4 | 996 | 13.6 |
| 1.7 | 1 | 1100 | 9.8 | 1960 | 12.4 | C=CC(=O)N1CCN(c2ccc3ncnc(Nc4ccc(Oc5ccn6ncnc6c5)c(Cl)c4F)c3n2)C[C@@H]1C1CC1 [Example 287] | – | – | – | – |
| 5.2 | 1.4 | – | – | – | – | C=CC(=O)N1[C@H](C)CN(c2ccc3ncnc(Nc4cc(C)c(Oc5ccc6c(c5)ncn6C)cc4F)c3n2)C[C@@H]1C [Example 112, 1-((2S,6R)-4-(4-((2-fluoro-5-methyl-4-((1-methyl-1H-benzo[d]imidazol-5-yl)oxy)phenyl)amino)pyrido[3,2-d]pyrimidin-6-yl)-2,6-dimethylpiperazin-1-yl)prop-2-en-1-one] | 3330 | 19.8 | ≥ 5000 | 57.5 |
| 2.4 | 1.3 | 5340 | 23.2 | ≥ 5000 | 92.6 | C=CC(=O)N1CCN(c2ccc3ncnc(Nc4cc(C)c(Oc5ccc6c(c5)ncn6C)cc4F)c3n2)C[C@H]1C(C)C [Example 254] | – | – | – | – |
| 6.2 | 1.6 | 5050 | 17.1 | ≥ 5000 | 122 | C=CC(=O)N1CCN(c2ccc3ncnc(Nc4cc(C)c(Oc5cnc6c(c5)ncn6C)cc4F)c3n2)CC1(C)C [Example 357] | – | – | – | – |
| 1.9 | 1.2 | – | – | – | – | C=CC(=O)N1CC[C@H](c2ccc3ncnc(Nc4ccc(Oc5ccc6c(c5)ncn6C)c(C)c4F)c3n2)CC(C)(C)C1 (racemic) [Example 140, rac-(R)-1-(5-(4-((2-fluoro-3-methyl-4-((1-methyl-1H-benzo[d]imidazol-5-yl)oxy)phenyl)amino)pyrido[3,2-d]pyrimidin-6-yl)-3,3-dimethylazepan-1-yl)prop-2-en-1-one] | ≥ 10000 | 31.1 | ≥ 5000 | 225 |

| SMILES | efflux ratio at 2 h, 1 µM [5] | efflux ratio at 2 h, 1 µM [6] | IC50 ([1]; EGFR enzyme assay) [nM] | IC50 [2, 8] [nM] | IC50 [3, 9] [nM] | IC50 ([4]; ErbB2 WT enzyme assay) [nM] | IC50 ([1]; EGFR enzyme) [nM] | IC50 ([2]; ErbB2 YVMA phosphorylation) [nM] | IC50 [3, 7] [nM] | IC50 ([4]; ErbB2 WT enzyme) [nM] |
| --- | --- | --- | --- | --- | --- | --- | --- | --- | --- | --- |
| C=CC(=O)N1[C@@H]2CC[C@H]1C(c1ccc3ncnc(Nc4ccc(Oc5ccn6ncnc6c5)c(C)c4)c3n1)C2 (single isomer, unassigned) [Example 232] | 2.6 | 0.8 | – | – | – | – | 203 | 31.9 | ≥ 5000 | 10.5 |
| C=CC(=O)N1C2CC1CN(c1ccc3ncnc(Nc4ccc(Oc5ccn6ncnc6c5)c(Cl)c4F)c3n1)C2 [Example 25, 1-(3-(4-((4-([1,2,4]triazolo[1,5-a]pyridin-7-yloxy)-3-chloro-2-fluorophenyl)amino)pyrido[3,2-d]pyrimidin-6-yl)-3,6-diazabicyclo[3.1.1]heptan-6-yl)prop-2-en-1-one] | 6.8 | 2.2 | – | – | – | – | 558 | 12.1 | 324 | 50.1 |
| C=CC(=O)N1[C@@H]2CC[C@H]1CC(c1ccc3ncnc(Nc4ccc(Oc5ccc6c(c5)ncn6C)c(C)c4F)c3n1)C2 (mixture of isomers) [Example 143, rac-1-((1R,5S)-3-(4-((2-fluoro-3-methyl-4-((1-methyl-1H-benzo[d]imidazol-5-yl)oxy)phenyl)amino)pyrido[3,2-d]pyrimidin-6-yl)-8-azabicyclo[3.2.1]octan-8-yl)prop-2-en-1-one] | 3 | 1.7 | – | – | – | – | 1850 | 20.9 | 2940 | 32.7 |
| C=CC(=O)N1[C@@H]2CC[C@H]1[C@H](c1ccc3ncnc(Nc4ccc(Oc5ccn6ncnc6c5)c(Cl)c4F)c3n1)C2 [Example 404] | 5.2 | 1.2 | 104 | 11.5 | ≥ 5000 | 7.2 | – | – | – | – |
| C=CC(=O)N1CCC(c2ccc3ncnc(Nc4ccc(Oc5ccc6c(c5)ncn6C)c(C)c4F)c3n2)CC12CC2 (stereo not drawn) [Example 128, 1-(7-(4-((2-fluoro-3-methyl-4-((1-methyl-1H-benzo[d]imidazol-5-yl)oxy)phenyl)amino)pyrido[3,2-d]pyrimidin-6-yl)-4-azaspiro[2.5]octan-4-yl)prop-2-en-1-one] | 2.7 | 0.6 | – | – | – | – | ≥ 10000 | 27.7 | 2620 | 44.4 |
| C=CC(=O)N1[C@@H]2CC[C@H]1[C@H](c1ccc3ncnc(Nc4ccc(Oc5ccn6ncnc6c5)c(C)c4F)c3n1)C2 (racemic) [Example 213, rac-1-((1 S,2R,4R)-2-(4-((4-([1,2,4]triazolo[1,5-a]pyridin-7-yloxy)-2-fluoro-3-methylphenyl)amino)pyrido[3,2-d]pyrimidin-6-yl)-7-azabicyclo[2.2.1]heptan-7-yl)prop-2-en-1-one] | 3.4 | 1.5 | – | – | – | – | 264 | 23.9 | ≥ 5000 | 7.3 |
| C=CC(=O)N1[C@@H]2CC[C@H]1[C@H](c1ccc3ncnc(Nc4ccc(Oc5cnc6c(c5)ncn6C)c(C)c4F)c3n1)C2 [Example 419] | 2.2 | 0.8 | 1040 | 21.5 | ≥ 5000 | 42.3 | – | – | – | – |
| C=CC(=O)N1[C@@H]2CCC[C@H]1[C@@H](c1ccc3ncnc(Nc4ccc(Oc5ccn6ncnc6c5)c(C)c4F)c3n1)C2 [Example 415] | 1.8 | 1 | 247 | 32 | ≥ 5000 | 9.8 | – | – | – | – |
| C=CC(=O)N1CC2CC(C1)N2c1ccc2ncnc(Nc3cc(Cl)c(Oc4ccn5ncnc5c4)cc3F)c2n1 [Example 45, 1-(6-(4-((4-([1,2,4]triazolo[1,5-a]pyridin-7-yloxy)-5-chloro-2-fluorophenyl)amino)pyrido[3,2-d]pyrimidin-6-yl)-3,6-diazabicyclo[3.1.1]heptan-3-yl)prop-2-en-1-one] | 5.6 | 2.5 | – | – | – | – | 8300 | 17.1 | 2760 | 222 |

Reference: patent US12447153B2, “HER2 mutation inhibitors” (Array BioPharma Inc., priority 2021, dated 2025)
